The source of these data is article PMC5697638, “Identification of a Potent Phosphoinositide 3‐Kinase Pan Inhibitor Displaying a Strategic Carboxylic Acid Group and Development of Its Prodrugs” (Chemmedchem, 2017).

Usually IC50 stands for the concentration needed to halve the response being measured.

Data set [1] deals with T1, hPI3Kβ (PIK3CB wt/PIK3R1) (Homo sapiens, UniProt P42338).
T1 construct: purchased ProQinase, Germany 1168‐1165‐1
Kind of data set: lipid kinase assay (ADP-Glo), PI3Kβ. The data set is classed as biochemical. (In general: ADP-Glo turns the ADP formed in a reaction into a luminescent signal.)

The nature of data set [2]: metabolic stability in rat liver microsomes (RLM). The data set is classed as in vitro ADME. The method, then:
Twelve esters were prepared (see the Experimental Section for their synthesis and the Supporting Information for chromatographic methods) and evaluated in terms of metabolic stability. For this task, a combined approach based on microsomal and plasmatic stability assays was exploited considering the relevance of the plasmatic and hepatic tissues in esterase activity. Microsomal stability of the selected esters was evaluated by monitoring the disappearance of the substrate incubated in rat liver microsomes (RLM) at 50 μM concentration, in the presence of NADPH. In Table 4, the percentage of the remaining substrate, after incubation (t=60 min), with respect to the initial amount is reported. Overall, the compounds underwent a relevant metabolic transformation, and the substrate depletion ranged from 0 (for 76) to 100 % (for 70). This is mainly due to hydrolysis of the ester function, whereas the metabolites arising from the oxidation catalyzed by the NADPH‐dependent monooxygenase system were negligible from a quantitative point of view. Indeed, the main metabolite formed during the incubation of the esters was corresponding carboxyl derivative 37. […] Moreover, whereas CH2‐pyridin‐4‐yl ester 70 was completely metabolized, corresponding benzyl derivative 65 and piperonyl derivative 72 were more hydrolytically stable, and their residual substrates were 53 and 83 %, respectively. The hydrolytic stability of the selected esters was also evaluated by monitoring the depletion of the substrate incubated at a 50 μM concentration in mouse plasma over a period of 30 min. As expected, the plasmatic metabolic fate of the esters was characterized by the formation of 37 as the only metabolite (see Figure S4). The rate constant k [min^−1], derived for the substrate peak area versus time curve (single‐exponential decay equation—GraphPad Prism software, Inc., San Diego, CA (USA); see Figure S5) was used to calculate the in vitro half‐life t 1/2 [min], and the values are reported in Table 4.
Metabolic stability of PI3K inhibitors in RLM fraction
The standard incubation mixture (500 µL final volume), in 1.5 mL Eppendorf tubes, was carried out in a 50 mM TRIS-HCl buffer (pH 7.4) containing 3.3 mM MgCl2, 1.3 mM NADPNa2, 3.3 mM glucose 6-phosphate, 0.4 Units/mL glucose 6-phosphate dehydrogenase (NADPH regenerating system), acetonitrile as cosolvent (1% of final volume) and 50 µM of substrate. After pre-equilibration of the mixture, an appropriate volume of rat microsomal suspension was added to give a final protein concentration of 1 mg/mL. The mixture was shaken for 1 hour at 37°C and the reaction was quenched by diluting the samples with 500 µL of ice-cold acetonitrile. The samples were then centrifuged at 13,000 rpm for 10 min, and the supernatant was directly injected onto the HPLC column for analysis. Control incubations were performed without microsomes. […]
A Shimadzu HPLC system (Shimadzu, Kyoto, Japan), consisting of two LC-10AD Vp module pumps, an SLC-10A Vp system controller, an SIL-10AD Vp autosampler, and a DGU-14-A on-line degasser was used for the analysis. All the chromatographic separations were performed on a Phenomenex Luna C18 5µm (150 x 4.6 mm i.d.) (Phenomenex srl, Castel Bolognese, Italy) as a stationary phase protected by a Luna C18 SecurityGuard (Phenomenex srl). The SPD-M10Avp photodiode array detector was used to detect the analyte at 254 nm. LC Solution 1.24 software was used to process the chromatograms. Aliquots (20 µL) of supernatants obtained from incubations were injected onto the HPLC system and eluted with a mobile phase (flow rate: 1 mL/min) consisting of solvent A- 0.5% aqueous formic acid solution and solvent B- acetonitrile/methanol 80:20.
The eluants were filtered through a 0.45-µm pore size polyvinylidene difluoride membrane […]
The following gradients programs were used: […]
(In general: Microsomes from liver hold many membrane-bound enzymes, among them those of drug oxidation.)

Some results are limits rather than exact numbers.

T1 sequence (P42338 whole entry): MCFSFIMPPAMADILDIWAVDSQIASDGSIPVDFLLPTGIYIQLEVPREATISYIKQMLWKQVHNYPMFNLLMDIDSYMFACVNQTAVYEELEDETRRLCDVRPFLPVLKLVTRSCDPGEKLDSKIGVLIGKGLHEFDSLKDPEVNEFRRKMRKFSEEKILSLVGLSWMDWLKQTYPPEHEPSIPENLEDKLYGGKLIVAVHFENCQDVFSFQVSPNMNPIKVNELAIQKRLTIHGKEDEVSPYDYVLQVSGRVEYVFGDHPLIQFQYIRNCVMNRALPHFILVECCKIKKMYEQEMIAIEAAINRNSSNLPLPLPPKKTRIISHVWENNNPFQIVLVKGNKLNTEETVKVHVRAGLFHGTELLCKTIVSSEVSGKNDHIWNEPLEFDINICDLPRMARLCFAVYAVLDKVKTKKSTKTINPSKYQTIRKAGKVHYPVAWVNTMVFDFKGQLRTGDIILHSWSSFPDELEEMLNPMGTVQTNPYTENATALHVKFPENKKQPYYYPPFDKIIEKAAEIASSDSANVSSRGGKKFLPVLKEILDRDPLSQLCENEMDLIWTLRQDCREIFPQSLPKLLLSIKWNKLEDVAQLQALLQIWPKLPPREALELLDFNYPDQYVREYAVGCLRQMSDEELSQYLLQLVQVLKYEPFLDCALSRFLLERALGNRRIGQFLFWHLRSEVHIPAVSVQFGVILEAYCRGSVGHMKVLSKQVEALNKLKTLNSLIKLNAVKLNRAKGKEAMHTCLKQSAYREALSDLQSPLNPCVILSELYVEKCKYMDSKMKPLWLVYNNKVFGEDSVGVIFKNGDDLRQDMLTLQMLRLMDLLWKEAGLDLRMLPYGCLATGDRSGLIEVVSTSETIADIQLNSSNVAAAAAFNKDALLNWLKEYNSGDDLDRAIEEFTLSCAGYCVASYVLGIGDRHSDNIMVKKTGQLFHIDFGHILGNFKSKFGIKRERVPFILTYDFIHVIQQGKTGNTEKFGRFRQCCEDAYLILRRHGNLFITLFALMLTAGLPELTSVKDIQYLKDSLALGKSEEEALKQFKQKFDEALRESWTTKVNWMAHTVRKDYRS
T1 sequence (P27986 whole entry partner): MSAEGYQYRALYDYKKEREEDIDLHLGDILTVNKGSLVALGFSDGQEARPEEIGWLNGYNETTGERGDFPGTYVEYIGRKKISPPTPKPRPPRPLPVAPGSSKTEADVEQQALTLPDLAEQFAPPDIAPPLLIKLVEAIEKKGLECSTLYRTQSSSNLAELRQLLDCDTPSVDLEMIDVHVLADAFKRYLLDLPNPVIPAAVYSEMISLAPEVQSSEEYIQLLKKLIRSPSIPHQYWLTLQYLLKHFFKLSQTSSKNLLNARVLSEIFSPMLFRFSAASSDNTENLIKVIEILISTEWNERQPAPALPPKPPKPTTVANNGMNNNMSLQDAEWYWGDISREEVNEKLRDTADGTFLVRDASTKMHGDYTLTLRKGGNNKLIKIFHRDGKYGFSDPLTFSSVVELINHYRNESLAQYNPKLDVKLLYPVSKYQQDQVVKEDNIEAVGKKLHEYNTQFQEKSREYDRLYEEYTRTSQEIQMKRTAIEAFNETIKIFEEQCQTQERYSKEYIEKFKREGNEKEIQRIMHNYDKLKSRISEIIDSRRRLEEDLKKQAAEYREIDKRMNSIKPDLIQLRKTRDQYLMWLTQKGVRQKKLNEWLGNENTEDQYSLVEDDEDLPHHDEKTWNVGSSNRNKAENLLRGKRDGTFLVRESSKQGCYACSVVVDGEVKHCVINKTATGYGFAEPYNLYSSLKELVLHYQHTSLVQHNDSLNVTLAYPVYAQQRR

As to `O=C(O)c1cccc(Cn2cc(-c3cccc4c(=O)cc(N5CCOCC5)[nH]c34)nn2)c1` [Compound 37, 3‐{[4‐(2‐Morpholino‐4‐oxo‐1,4‐dihydroquinolin‐8‐yl)‐1H‐1,2,3‐triazol‐1‐yl]methyl}benzoic acid], in data set [1] (Table 2, mean of at least three determinations, 95 % confidence intervals), half-maximal inhibition (IC50) was put at 59 ± 15 nM. In addition, in data set [1] (determined at 1 μM, at least triplicate, read-out: Inhibitory activity, PI3K isoform β), the inhibition at 1 µM was greater than 50%.
With `COC(=O)c1cccc(Cn2cc(-c3cccc4c(=O)cc(N5CCOCC5)[nH]c34)nn2)c1` [Compound 64, Methyl 3‐{[4‐(2‐morpholino‐4‐oxo‐1,4‐dihydroquinolin‐8‐yl)‐1H‐1,2,3‐triazol‐1‐yl]methyl}benzoate], in data set [2] (RLM, 50 μM substrate, with NADPH, LC–UV), the “Residual microsomal substrate (t=60 min)” value was found to be 20%. Moreover, the “% residual substrate, NADPH (without RLM)” value in data set [2] (control incubation without microsomes, 50 μM, 60 min) amounted to 100%.
